{"source": "paper PMC6004566", "about": "(ACS Medicinal Chemistry Letters, 2018)", "key": {"NOTUM [1]": {"target": "T1, NOTUM (Homo sapiens, UniProt Q6P988)", "T1 sequence (Q6P988 20-496)": "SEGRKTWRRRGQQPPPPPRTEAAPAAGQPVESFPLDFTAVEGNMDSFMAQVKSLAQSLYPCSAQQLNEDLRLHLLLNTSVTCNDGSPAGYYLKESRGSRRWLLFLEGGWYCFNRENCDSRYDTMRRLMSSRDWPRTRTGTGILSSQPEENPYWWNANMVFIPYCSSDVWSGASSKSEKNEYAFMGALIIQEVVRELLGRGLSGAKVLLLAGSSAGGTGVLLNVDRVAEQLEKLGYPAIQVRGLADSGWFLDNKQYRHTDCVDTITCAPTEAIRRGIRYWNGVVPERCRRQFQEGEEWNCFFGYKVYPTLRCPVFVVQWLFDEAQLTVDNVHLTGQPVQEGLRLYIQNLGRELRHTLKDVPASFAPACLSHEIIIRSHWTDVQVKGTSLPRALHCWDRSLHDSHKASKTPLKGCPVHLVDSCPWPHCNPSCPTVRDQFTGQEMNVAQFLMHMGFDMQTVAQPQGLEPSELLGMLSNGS", "assay": "Competitive gel-based ABPP", "assay_type": "biochemical", "conditions": "10 μM, 30 min pretreatment at 37 °C; CM of WT-NOTUM-transfected HEK293T cells"}, "PPT1": {"target": "T2, PPT1 (Homo sapiens, UniProt P50897)", "T2 sequence (P50897 28-306)": "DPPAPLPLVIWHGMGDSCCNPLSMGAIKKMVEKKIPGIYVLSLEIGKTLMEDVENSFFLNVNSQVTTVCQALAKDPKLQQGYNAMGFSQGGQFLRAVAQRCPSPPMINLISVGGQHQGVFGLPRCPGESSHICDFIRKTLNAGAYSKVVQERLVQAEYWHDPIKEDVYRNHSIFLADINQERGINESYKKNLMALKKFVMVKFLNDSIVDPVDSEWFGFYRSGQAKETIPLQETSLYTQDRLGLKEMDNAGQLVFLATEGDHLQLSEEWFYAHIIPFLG", "assay_type": "cell-based", "conditions": "SW620 cells in situ 2 h; ABC45 probe 1 µM"}, "serine hydrolases": {"tested_on": "serine hydrolases", "assay": "Competitive gel-based ABPP", "assay_type": "cell-based, human", "conditions": "SW620 soluble and membrane proteomes, in situ 2 h, 37 °C, FP-Rh"}, "NOTUM [2]": {"target": "T1, NOTUM", "assay_type": "biochemical", "conditions": "SW620 CM; for inhibitory activity for NOTUM: competitive gel-based ABPP"}, "[3]": {"tested_on": "FP-biotin-enriched proteins of SW620 conditioned media", "assay": "Quantitative MS-based ABPP of SW620 CM", "assay_type": "biochemical, human", "conditions": "0.5 and 10 μM; both CM and SW620 in situ treated cells"}, "NOTUM [4]": {"target": "T1, NOTUM", "assay": "ABC99yne direct labeling", "conditions": "0.1 μM probe; CM and cellular lysate of SW620 cells; Rh-N3 click"}, "ABHD6": {"target": "T3, ABHD6 (Homo sapiens, UniProt Q9BV23)", "T3 sequence (Q9BV23 1-337)": "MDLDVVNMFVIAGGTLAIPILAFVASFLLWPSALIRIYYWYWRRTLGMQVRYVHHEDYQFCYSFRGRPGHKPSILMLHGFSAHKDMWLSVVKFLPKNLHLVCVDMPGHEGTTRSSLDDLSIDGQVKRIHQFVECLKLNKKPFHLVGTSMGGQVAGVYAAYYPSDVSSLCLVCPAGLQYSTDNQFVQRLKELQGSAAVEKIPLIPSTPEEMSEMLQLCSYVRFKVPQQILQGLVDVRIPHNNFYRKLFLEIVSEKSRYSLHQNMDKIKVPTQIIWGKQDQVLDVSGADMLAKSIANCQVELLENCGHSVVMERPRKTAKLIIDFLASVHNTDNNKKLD", "assay": "MS-based ABPP, SW620 cells in situ", "assay_type": "cell-based", "conditions": "10 µM, Supplementary Figure 3"}}, "data": [{"compound": "COc1ccc(N2CCN(C(=O)ON3C(=O)C4CN(Cc5ccc(Br)cc5)CCN4C3=O)CC2)cc1", "note": "(stereo not drawn) [ABC28]", "values": [{"measurement": "FP-Rh reactivity with NOTUM", "setting": "NOTUM [1]", "value": "blocked FP-Rh reactivity with NOTUM"}]}, {"compound": "O=C1C2CN(Cc3ccc(Oc4ccccc4)nc3)CCN2C(=O)N1OC(=O)N1CCOc2ccccc21", "note": "(stereo not drawn) [ABC63]", "values": [{"measurement": "PPT1 inhibition", "setting": "PPT1", "value": "did not inhibit PPT1 at concentrations up to 10 μM"}, {"measurement": "FP-Rh reactivity with NOTUM", "setting": "NOTUM [1]", "value": "blocked FP-Rh reactivity with NOTUM"}]}, {"compound": "COc1ccc(N2CCN(C(=O)ON3C(=O)C4CN(Cc5ccc(Cl)cc5)CCN4C3=O)CC2)cc1", "note": "(stereo not drawn) [ABC90]", "values": [{"measurement": "selectivity across serine hydrolases", "setting": "serine hydrolases", "value": "only a single major site of ABC90 cross reactivity was observed; a 35 kDa protein that we suspected was ABHD6"}, {"measurement": "PPT1 inhibition", "setting": "PPT1", "value": "potent inhibitor of PPT1"}]}, {"compound": "COc1ccc(N2CCN(C(=O)ON3C(=O)C4CN(Cc5cccc(Cl)c5)CCN4C3=O)CC2)cc1", "note": "(stereo not drawn) [ABC91]", "values": [{"measurement": "inhibitory activity for NOTUM", "setting": "NOTUM [2]", "value": "completely lost activity"}]}, {"compound": "O=C1C2CN(Cc3ccc(Cl)cc3)CCN2C(=O)N1OC(=O)N1CCOc2ccccc21", "note": "(stereo not drawn) [ABC99]", "values": [{"measurement": "cross-reactivity with the 64 additional serine hydrolases quantified by MS-ABPP", "setting": "[3]", "value": "virtually no cross-reactivity"}, {"measurement": "PPT1 inhibition", "setting": "PPT1", "value": "did not cross-react"}]}, {"compound": "C#CCN1CCN(C(=O)ON2C(=O)C3CN(Cc4ccc(Cl)cc4)CCN3C2=O)c2ccccc21", "note": "(stereo not drawn) [ABC99yne]", "values": [{"measurement": "IC50 for blockade of FP-Rh reactivity of NOTUM", "setting": "NOTUM [2]; 30 min, 37 °C", "value": "sub-micromolar"}, {"measurement": "direct labeling selectivity", "setting": "NOTUM [4]", "value": "highly selective labeling of NOTUM with no other cross-reactive proteins observed"}]}, {"compound": "O=C(c1ccc(Cl)cc1)N1CCN2C(=O)N(OC(=O)N3CCOc4ccccc43)C(=O)C2C1", "note": "(stereo not drawn) [ABC101]", "values": [{"measurement": "inhibitory activity for NOTUM", "setting": "NOTUM [2]", "value": "lost inhibitory activity for NOTUM"}, {"measurement": "inhibition of ABHD6", "setting": "ABHD6", "value": "maintained inhibition of ABHD6"}]}]}
